Data published in publication PMC5218480 (PLoS ONE, 2017).

Tested on: MV-4-11 cells
Assay: Gene expression microarray analysis (Affymetrix PrimeView) and GSEA
Format: cell-based, human
Design: RFU PODN (11730768_x_at) / Fold change /veh PODN (11730768_x_at) / RFU LINC00158 (11744669_a_at) / Fold change /veh LINC00158 (11744669_a_at) / RFU DUSP10 (11751237_a_at) / Fold change /veh DUSP10 (11751237_a_at) / RFU ID3 (11757404_x_at) / Fold change /veh ID3 (11757404_x_at) / RFU PLEKHG5 (11737974_s_at) / Fold change /veh PLEKHG5 (11737974_s_at) / RFU LRRC4B (11730491_at) / Fold change /veh LRRC4B (11730491_at) / RFU GIMAP4 (11747438_a_at) / Fold change /veh GIMAP4 (11747438_a_at) / RFU KRT8 (11758183_x_at) / Fold change /veh KRT8 (11758183_x_at) / RFU CNN1 (11734310_a_at) / Fold change /veh CNN1 (11734310_a_at) / RFU VPS37D (11726825_at) / Fold change /veh VPS37D (11726825_at) / RFU C10orf10 (11716522_x_at) / Fold change /veh C10orf10 (11716522_x_at) / RFU KIR2DL2 /// KIR2DL4 /// KIR2DL5A /// KIR2DL5B /// KIR2DS1 /// KIR2DS2 /// KIR2DS3 /// KIR2DS4 /// KIR3DL3 /// KIR3DL3 /// KIR3DS1 (11738374_at) / Fold change /veh KIR2DL2 /// KIR2DL4 /// KIR2DL5A /// KIR2DL5B /// KIR2DS1 /// KIR2DS2 /// KIR2DS3 /// KIR2DS4 /// KIR3DL3 /// KIR3DL3 /// KIR3DS1 (11738374_at) / RFU C1QL1 (11718748_at) / Fold change /veh C1QL1 (11718748_at) / RFU TMPRSS4 (11747572_a_at) / Fold change /veh TMPRSS4 (11747572_a_at) / RFU HAMP (11756126_x_at) / Fold change /veh HAMP (11756126_x_at) / RFU RNFT2 (11725882_a_at) / Fold change /veh RNFT2 (11725882_a_at) / RFU NR4A2 (11747474_a_at) / Fold change /veh NR4A2 (11747474_a_at) / RFU ABCC12 (11746883_a_at) / Fold change /veh ABCC12 (11746883_a_at) / RFU TMEM136 (11760407_x_at) / Fold change /veh TMEM136 (11760407_x_at) / RFU CLDN22 /// WWC2 (11732394_at) / Fold change /veh CLDN22 /// WWC2 (11732394_at) / RFU HLA-DPB1 (11760878_x_at) / Fold change /veh HLA-DPB1 (11760878_x_at) / RFU SPINT1 (11716480_a_at) / Fold change /veh SPINT1 (11716480_a_at) / RFU GAP43 (11754022_s_at) / Fold change /veh GAP43 (11754022_s_at) / RFU A4GNT (11735810_at) / Fold change /veh A4GNT (11735810_at) / RFU PRB3 (11715151_x_at) / Fold change /veh PRB3 (11715151_x_at) / RFU TUBB4B (11761932_at) / Fold change /veh TUBB4B (11761932_at) / RFU CAPN14 (11732068_a_at) / Fold change /veh CAPN14 (11732068_a_at) / RFU TMCC2 (11721928_a_at) / Fold change /veh TMCC2 (11721928_a_at) / RFU IRGQ (11745062_a_at) / Fold change /veh IRGQ (11745062_a_at) / RFU FAM174B (11720279_a_at) / Fold change /veh FAM174B (11720279_a_at) / RFU TMPRSS4 (11748680_a_at) / Fold change /veh TMPRSS4 (11748680_a_at) / RFU FAM212B (11763350_a_at) / Fold change /veh FAM212B (11763350_a_at) / RFU PLEKHG5 (11743358_a_at) / Fold change /veh PLEKHG5 (11743358_a_at) / RFU ZSCAN30 (11745921_a_at) / Fold change /veh ZSCAN30 (11745921_a_at) / RFU CMKLR1 (11741424_a_at) / Fold change /veh CMKLR1 (11741424_a_at) / RFU LOC101060620 /// MAPK8IP1 (11723275_at) / Fold change /veh LOC101060620 /// MAPK8IP1 (11723275_at) / RFU SPTSSB (11747773_x_at) / Fold change /veh SPTSSB (11747773_x_at) / RFU PRSS12 (11739890_at) / Fold change /veh PRSS12 (11739890_at) / RFU BIN1 (11741810_x_at) / Fold change /veh BIN1 (11741810_x_at) / RFU WNT11 (11732464_a_at) / Fold change /veh WNT11 (11732464_a_at) / RFU C10orf10 (11716521_a_at) / Fold change /veh C10orf10 (11716521_a_at) / RFU C5orf56 (11738089_at) / Fold change /veh C5orf56 (11738089_at) / RFU CYB561 (11721691_x_at) / Fold change /veh CYB561 (11721691_x_at) / RFU ANKRD19P (11752326_a_at) / Fold change /veh ANKRD19P (11752326_a_at) / RFU OR2T12 /// OR2T33 /// OR2T8 (11738714_s_at) / Fold change /veh OR2T12 /// OR2T33 /// OR2T8 (11738714_s_at) / RFU VCAN (11748164_a_at) / Fold change /veh VCAN (11748164_a_at) / RFU JSRP1 (11732532_at) / Fold change /veh JSRP1 (11732532_at) / RFU KRTAP10-11 (11738290_x_at) / Fold change /veh KRTAP10-11 (11738290_x_at) / RFU MYO3A (11730013_a_at) / Fold change /veh MYO3A (11730013_a_at) / RFU EBF3 (11725865_a_at) / Fold change /veh EBF3 (11725865_a_at) / RFU CAMK2N1 (11719241_x_at) / Fold change /veh CAMK2N1 (11719241_x_at) / RFU C5orf56 (11738088_a_at) / Fold change /veh C5orf56 (11738088_a_at) / RFU OLFML3 (11715873_a_at) / Fold change /veh OLFML3 (11715873_a_at) / RFU LOC100653217 /// NTM (11731650_a_at) / Fold change /veh LOC100653217 /// NTM (11731650_a_at) / RFU MAPK11 (11762145_a_at) / Fold change /veh MAPK11 (11762145_a_at) / RFU FIZ1 (11724087_x_at) / Fold change /veh FIZ1 (11724087_x_at) / RFU OASL (11726364_x_at) / Fold change /veh OASL (11726364_x_at) / RFU SOX15 (11748057_x_at) / Fold change /veh SOX15 (11748057_x_at) / RFU CD79A (11719716_a_at) / Fold change /veh CD79A (11719716_a_at) / RFU HIST1H1D (11736915_at) / Fold change /veh HIST1H1D (11736915_at) / RFU CASKIN2 (11723855_a_at) / Fold change /veh CASKIN2 (11723855_a_at) / RFU LOC730098 (11760151_x_at) / Fold change /veh LOC730098 (11760151_x_at) / RFU OR4N2 (11742367_at) / Fold change /veh OR4N2 (11742367_at) / RFU PRRT2 (11749266_a_at) / Fold change /veh PRRT2 (11749266_a_at) / RFU SNX32 (11753110_a_at) / Fold change /veh SNX32 (11753110_a_at) / RFU CDHR5 (11726645_a_at) / Fold change /veh CDHR5 (11726645_a_at) / RFU RCAN1 (11760418_a_at) / Fold change /veh RCAN1 (11760418_a_at) / RFU FAM167A (11723789_a_at) / Fold change /veh FAM167A (11723789_a_at) / RFU FAM26E (11764081_at) / Fold change /veh FAM26E (11764081_at) / RFU ISYNA1 (11749810_s_at) / Fold change /veh ISYNA1 (11749810_s_at) / RFU ACY1 (11761880_at) / Fold change /veh ACY1 (11761880_at) / RFU 11764098_at / Fold change /veh 11764098_at / RFU SAMD14 (11745864_x_at) / Fold change /veh SAMD14 (11745864_x_at) / RFU NPB (11741838_a_at) / Fold change /veh NPB (11741838_a_at) / RFU TMPRSS6 (11731388_a_at) / Fold change /veh TMPRSS6 (11731388_a_at) / RFU KRTAP10-2 (11738614_at) / Fold change /veh KRTAP10-2 (11738614_at) / RFU ARHGAP8 /// PRR5-ARHGAP8 (11727945_x_at) / Fold change /veh ARHGAP8 /// PRR5-ARHGAP8 (11727945_x_at) / RFU KRTAP5-7 /// NADSYN1 (11734609_at) / Fold change /veh KRTAP5-7 /// NADSYN1 (11734609_at) / RFU RASL12 (11751679_a_at) / Fold change /veh RASL12 (11751679_a_at) / RFU CDKN2B (11736163_a_at) / Fold change /veh CDKN2B (11736163_a_at) / RFU PRF1 (11729649_at) / Fold change /veh PRF1 (11729649_at) / RFU, ZNF638 /// ZNF638-IT1 / Fold change vs veh, ZNF638 /// ZNF638-IT1 / RFU, PANK3 / Fold change vs veh, PANK3 / RFU, SH3YL1 / Fold change vs veh, SH3YL1 / RFU, ZEB2 / Fold change vs veh, ZEB2 / RFU, NRIP1 / Fold change vs veh, NRIP1 / RFU, PTTG1IP / Fold change vs veh, PTTG1IP / RFU, CAPN2 / Fold change vs veh, CAPN2 / RFU, MED14 / Fold change vs veh, MED14 / RFU, SNORA58 / Fold change vs veh, SNORA58 / RFU, C1orf63 / Fold change vs veh, C1orf63 / RFU, LRRFIP1 / Fold change vs veh, LRRFIP1 / RFU, NDUFAF7 / Fold change vs veh, NDUFAF7 / RFU, SLC12A2 / Fold change vs veh, SLC12A2 / RFU, IBTK / Fold change vs veh, IBTK / RFU, ESF1 / Fold change vs veh, ESF1 / Fold change vs veh, TMEM50B / RFU, TAOK1 / Fold change vs veh, TAOK1 / RFU, ACBD3 / Fold change vs veh, ACBD3 / RFU, TMA16 / Fold change vs veh, TMA16 / RFU, RWDD3 / Fold change vs veh, RWDD3 / RFU, BCAT1 / Fold change vs veh, BCAT1 / RFU, EDEM3 / Fold change vs veh, EDEM3 / RFU, TMEM33 / Fold change vs veh, TMEM33 / RFU, WDR75 / Fold change vs veh, WDR75 / RFU, AHCTF1 / Fold change vs veh, AHCTF1 / RFU, TFRC / Fold change vs veh, TFRC / RFU, ZDHHC17 / Fold change vs veh, ZDHHC17 / RFU, NOM1 / Fold change vs veh, NOM1 / RFU, ARL8B / Fold change vs veh, ARL8B / RFU, ZBTB11 / Fold change vs veh, ZBTB11 / RFU, TAMM41 / Fold change vs veh, TAMM41 / RFU, KIAA1704 /// LOC100996395 / Fold change vs veh, KIAA1704 /// LOC100996395 / RFU, ING1 / Fold change vs veh, ING1 / RFU, TRMT61B / Fold change vs veh, TRMT61B / RFU, FUBP3 / Fold change vs veh, FUBP3 / RFU, TP53 / Fold change vs veh, TP53 / RFU, TNKS2 / Fold change vs veh, TNKS2 / RFU, ZFP14 / Fold change vs veh, ZFP14 / RFU, ACTR2 / Fold change vs veh, ACTR2 / RFU, PPP3R1 / Fold change vs veh, PPP3R1 / RFU, PIK3R1 / Fold change vs veh, PIK3R1 / RFU, HNRNPA1 / Fold change vs veh, HNRNPA1 / RFU, RNF170 / Fold change vs veh, RNF170 / RFU, ZNF28 / Fold change vs veh, ZNF28 / RFU, RNGTT / Fold change vs veh, RNGTT / RFU, OGT / Fold change vs veh, OGT / RFU, BRD1 / Fold change vs veh, BRD1 / RFU, MARS / Fold change vs veh, MARS / RFU, ZNF655 / Fold change vs veh, ZNF655 / RFU, FAHD1 / Fold change vs veh, FAHD1 / RFU, BDP1 / Fold change vs veh, BDP1 / RFU, LRRCC1 / Fold change vs veh, LRRCC1 / RFU, ARID1A / Fold change vs veh, ARID1A / RFU, ZNF146 / Fold change vs veh, ZNF146 / RFU, ZNF330 / Fold change vs veh, ZNF330 / RFU, GPN3 / Fold change vs veh, GPN3 / RFU, C9orf123 / Fold change vs veh, C9orf123 / RFU, N4BP2L2 / Fold change vs veh, N4BP2L2 / RFU, ARFIP1 / Fold change vs veh, ARFIP1 / RFU, FAM179B / Fold change vs veh, FAM179B / RFU, BCL10 / Fold change vs veh, BCL10 / RFU, UHRF1BP1L / Fold change vs veh, UHRF1BP1L / RFU, BET1 / Fold change vs veh, BET1 / RFU, CNOT2 / Fold change vs veh, CNOT2 / RFU, ZNF268 / Fold change vs veh, ZNF268 / Fold change vs veh, ZNF507 / RFU, DGCR2 / Fold change vs veh, DGCR2 / RFU, WDSUB1 / Fold change vs veh, WDSUB1 / Fold change vs veh, HSP90B1 /// MIR3652 / RFU, ADSS / Fold change vs veh, ADSS / RFU, GK / Fold change vs veh, GK / RFU, ZNF148 / Fold change vs veh, ZNF148 / RFU, TAF9 / Fold change vs veh, TAF9 / RFU, SLC1A5 / Fold change vs veh, SLC1A5 / RFU, SLMO2 / Fold change vs veh, SLMO2 / RFU, ABCC4 / Fold change vs veh, ABCC4 / RFU, LOC101060439 /// RAP1B / Fold change vs veh, LOC101060439 /// RAP1B / RFU, RFX7 / Fold change vs veh, RFX7 / RFU, GTPBP10 / Fold change vs veh, GTPBP10 / RFU, CNEP1R1 / Fold change vs veh, CNEP1R1 / RFU, BIVM-ERCC5 /// ERCC5 / Fold change vs veh, BIVM-ERCC5 /// ERCC5 / RFU, ILF3 / Fold change vs veh, ILF3 / RFU 11762660_at / Fold change /veh 11762660_at / RFU VCAN (11757783_s_at) / Fold change /veh VCAN (11757783_s_at) / RFU DDX43 (11728927_at) / Fold change /veh DDX43 (11728927_at) / RFU KRT8 (11758188_x_at) / Fold change /veh KRT8 (11758188_x_at) / RFU NKD1 (11759106_at) / Fold change /veh NKD1 (11759106_at) / RFU SRD5A1 (11742802_a_at) / Fold change /veh SRD5A1 (11742802_a_at) / RFU TPSAB1 /// TPSB2 (11721975_s_at) / Fold change /veh TPSAB1 /// TPSB2 (11721975_s_at) / RFU GSTM3 (11746129_a_at) / Fold change /veh GSTM3 (11746129_a_at) / RFU IL23R (11737362_x_at) / Fold change /veh IL23R (11737362_x_at) / RFU TMEM51 (11727254_a_at) / Fold change /veh TMEM51 (11727254_a_at) / RFU PIWIL2 (11732686_x_at) / Fold change /veh PIWIL2 (11732686_x_at) / RFU ORM1 (11744905_x_at) / Fold change /veh ORM1 (11744905_x_at) / RFU CCDC152 (11743942_at) / Fold change /veh CCDC152 (11743942_at) / RFU ECM1 (11717891_a_at) / Fold change /veh ECM1 (11717891_a_at) / RFU IL23R (11748794_a_at) / Fold change /veh IL23R (11748794_a_at) / RFU TNFAIP8L3 (11732012_x_at) / Fold change /veh TNFAIP8L3 (11732012_x_at) / RFU MBOAT4 (11741988_at) / Fold change /veh MBOAT4 (11741988_at) / RFU 11764193_at / Fold change /veh 11764193_at / RFU TMEM53 (11763286_at) / Fold change /veh TMEM53 (11763286_at) / RFU MAGEB2 (11727129_at) / Fold change /veh MAGEB2 (11727129_at) / RFU TMEM200A (11744735_a_at) / Fold change /veh TMEM200A (11744735_a_at) / RFU CCDC152 (11751479_a_at) / Fold change /veh CCDC152 (11751479_a_at) / RFU FAM211A (11726209_a_at) / Fold change /veh FAM211A (11726209_a_at) / RFU RGS16 (11746705_a_at) / Fold change /veh RGS16 (11746705_a_at) / RFU VCAN (11755009_s_at) / Fold change /veh VCAN (11755009_s_at) / RFU RHOB (11743442_s_at) / Fold change /veh RHOB (11743442_s_at) / RFU RGS16 (11720943_a_at) / Fold change /veh RGS16 (11720943_a_at) / RFU RGS16 (11720944_at) / Fold change /veh RGS16 (11720944_at) / RFU, VPS4B / Fold change vs veh, VPS4B / RFU, CREB1 / Fold change vs veh, CREB1 / RFU, DNAJC13 / Fold change vs veh, DNAJC13 / RFU, GNAQ / Fold change vs veh, GNAQ / RFU, CDK5R1 / Fold change vs veh, CDK5R1 / RFU, ZRANB3 / Fold change vs veh, ZRANB3 / RFU, CUL4A / Fold change vs veh, CUL4A / RFU, CCNY / Fold change vs veh, CCNY / RFU, UFL1 / Fold change vs veh, UFL1 / RFU, COG3 / Fold change vs veh, COG3 / RFU, DIAPH2 / Fold change vs veh, DIAPH2 / RFU, SKA2 / Fold change vs veh, SKA2 / RFU, AFF3 / Fold change vs veh, AFF3 / RFU, LMF1 / Fold change vs veh, LMF1 / RFU, IPO11 / Fold change vs veh, IPO11 / RFU, DFFB / Fold change vs veh, DFFB / RFU, FOXP1 / Fold change vs veh, FOXP1 / RFU, CARD8 / Fold change vs veh, CARD8 / RFU, STRN3 / Fold change vs veh, STRN3 / RFU, ADK / Fold change vs veh, ADK / RFU, RASSF2 / Fold change vs veh, RASSF2 / RFU, WIPF1 / Fold change vs veh, WIPF1 / RFU, LARP1B / Fold change vs veh, LARP1B / RFU, RASA1 / Fold change vs veh, RASA1 / RFU, RB1 / Fold change vs veh, RB1 / RFU, PPFIA1 / Fold change vs veh, PPFIA1 / RFU, MAT2A / Fold change vs veh, MAT2A / RFU, CCT5 / Fold change vs veh, CCT5 / RFU, WDR92 / Fold change vs veh, WDR92 / RFU, CUX1 / Fold change vs veh, CUX1 / RFU, TTC7A / Fold change vs veh, TTC7A / RFU, TMEM135 / Fold change vs veh, TMEM135 / RFU, DEPTOR / Fold change vs veh, DEPTOR / RFU, CPM / Fold change vs veh, CPM / RFU, DNAJB6 / Fold change vs veh, DNAJB6 / RFU, CACNA2D3 / Fold change vs veh, CACNA2D3 / RFU, DTX4 / Fold change vs veh, DTX4 / RFU, TFCP2 / Fold change vs veh, TFCP2 / RFU, GMCL1 /// GMCL1P1 / Fold change vs veh, GMCL1 /// GMCL1P1 / RFU, AEBP2 / Fold change vs veh, AEBP2 / RFU, SNHG1 /// SNORD22 /// SNORD25 /// SNORD26 /// SNORD27 /// SNORD28 /// SNORD29 /// SNORD31 / Fold change vs veh, SNHG1 /// SNORD22 /// SNORD25 /// SNORD26 /// SNORD27 /// SNORD28 /// SNORD29 /// SNORD31 / Fold change (Aza/veh), C12orf56 (ProbeSet 11735607_a_at) / Fold change (ACY-1035/veh), C12orf56 (ProbeSet 11735607_a_at) / Fold change (Aza/veh), FGFR1OP (ProbeSet 11751329_s_at) / Fold change (ACY-1035/veh), FGFR1OP (ProbeSet 11751329_s_at) / Fold change (Aza/veh), VPS36 (ProbeSet 11739960_a_at) / Fold change (ACY-1035/veh), VPS36 (ProbeSet 11739960_a_at) / RFU SYPL1 (11715823_x_at) / Fold change /veh SYPL1 (11715823_x_at) / RFU IGFBP7 (11715501_s_at) / Fold change /veh IGFBP7 (11715501_s_at) / RFU REEP3 (11722064_at) / Fold change /veh REEP3 (11722064_at) / RFU IGLL1 (11728026_x_at) / Fold change /veh IGLL1 (11728026_x_at): dose or concentration left out as unconfirmed
Conditions: ProbeSet 11726661_s_at; LIST B

Compound: Nc1ncn([C@@H]2O[C@H](CO)[C@@H](O)[C@H]2O)c(=O)n1 [azacitidine]
- RFU, GPN3: 248.57 RFU
